Read-outs that look alike come from different tables or passages of the source.
What was measured:
[1] = system: OVISE (JCRB1043, CCNE1-amplified); assay: OVISE EdU incorporation cell proliferation assay (CDK2-dependent); type: cell-based; settings: for CDK2 cell potency compared with Comparator E: CDK2 OVISE cellular assay data; for IC50 / FS SKOV-3/OVISE / FS p-H3/OVISE: Table O; for IC50: cellular assay, read-out: CDK2 OVISE IC50; for FS SKOV-3/OVISE / FS p-H3/OVISE: fold selectivity; for FS SKOV-3/OVISE: cellular SKOV-3 IC50 over OVISE IC50; for FS p-H3/OVISE: cellular p-H3 IC50 over OVISE IC50; for CDK2 OVISE IC50 fold change in potency versus Comparator D: Table R; for CDK2 OVISE IC50 fold change in potency versus Comparator D / CDK2 OVISE IC50 fold change in potency versus Comparator E: in brackets after OVISE IC50; for CDK2 OVISE IC50 fold change in potency versus Comparator E: Table S
Outline: (§1)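 EdU incorporation (0.5 μM final, last 8 h) follows a 16 h compound exposure at 37 °C, 5% CO2 in RPMI plus 10% FBS, 0.5% DMSO. After fixation, imaging scores EdU-positive cells; a 4-parameter logistic fit of that fraction gives IC50.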

[2] = biological target: T1, Cyclin Dependent Kinase 1/Cyclin A2 (CDK1-cycA2) (Homo sapiens, UniProt P06493); assay: CDK1-cycA2 TR-FRET (Lance) enzyme assay; type: biochemical; settings: for Ki: Table O, enzymatic assay; for FS CDK1/CDK2: fold selectivity, enzymatic Ki ratio
T1 construct: purchased ProQinase 0134-0054-1
Outline: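 TR-FRET (Lance) detection of phospho-4E-BP1 with a europium-labelled antibody after EDTA quench (15 mM final); signal taken as acceptor/donor ratio. Enzyme and compound were pre-incubated 30 min in HEPES pH 7.5 buffer with MgCl2, TCEP, BGG and Brij 35. Ki derived by Morrison fit.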

HCT116 cells = assay: p-H3 HCT-116 mitotic release cell proliferation assay (cellular CDK1); type: cell-based; settings: Homo sapiens, HCT-116; Table O, cellular assay; read-out: CDK1 p-H3 IC50
Outline: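 Phospho-Histone H3 (Ser10) in lysates was quantified by a two-antibody HTRF FRET read (≥2 h, room temperature). Before this, HCT116 cells held in mitosis by 16 h of 500 nM nocodazole were treated with compound for 4 h at 37 °C, 0.1% DMSO.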

SKOV-3 (ATCC HTB-77) = assay: SKOV-3 EdU incorporation cell proliferation assay (CDK4/6-dependent); type: cell-based; settings: for IC50: Homo sapiens, cellular assay, read-out: CDK4/6 SKOV-3 IC50; for selectivity for CDK2 over CDK4 compared with Comparator E: SKOV-3/OVISE fold-selectivity cellular assay data; for FS SKOV-3/OVISE: fold selectivity, cellular IC50 ratio
Outline: as §1

[3] = biological target: T2, Cyclin Dependent Kinase 2/Cyclin E1 (CDK2-cycE1) (Homo sapiens, UniProt P24941); assay: CDK2-cycE1 TR-FRET (LANCE) enzyme assay; type: biochemical; settings: for FS CDK1/CDK2 / FS CDK4/CDK2: fold selectivity; for FS CDK1/CDK2: enzymatic CDK1 Ki over CDK2 Ki; for FS CDK4/CDK2: enzymatic CDK4 Ki over CDK2 Ki; for CDK2 Ki fold change in potency versus Comparator D / CDK2 Ki fold change in potency versus Comparator E: in brackets after CDK2 Ki
T2 construct: purchased ProQinase 0050-0055-1
Outline: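 Kinase reaction buffer: 50 mM HEPES pH 7.5, 10 mM MgCl2, 2 mM TCEP, 0.05% BGG, 0.01% Brij 35, with 30 min compound–enzyme pre-incubation.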

[4] = biological target: T3, Cyclin Dependent Kinase 4/Cyclin D3 (CDK4-cycD3) (Homo sapiens, UniProt P11802); assay: CDK4-cycD3 TR-FRET (LANCE) enzyme assay; type: biochemical; settings: for Ki: Table O, enzymatic assay; for FS CDK4/CDK2: fold selectivity, enzymatic Ki ratio
T3 construct: purchased Carna Biosciences 04-105
Outline: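 Compound dose responses pre-incubated 30 min with enzyme mix in 50 mM HEPES pH 7.5, 10 mM MgCl2, 2 mM TCEP, 0.05% BGG, 0.01% Brij 35. Reaction quenched with EDTA (15 mM final); Eu-anti-phospho-4E-BP1 TR-FRET detection, acceptor/donor ratio. Ki derived by Morrison equation.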

[5] = Table O, enzymatic assay, read-out: CDK2 Ki
[6] = Table R, enzymatic assay, read-out: CDK2 Ki
[7] = Table S, enzymatic assay, read-out: CDK2 Ki

T1 sequence (P06493 whole entry): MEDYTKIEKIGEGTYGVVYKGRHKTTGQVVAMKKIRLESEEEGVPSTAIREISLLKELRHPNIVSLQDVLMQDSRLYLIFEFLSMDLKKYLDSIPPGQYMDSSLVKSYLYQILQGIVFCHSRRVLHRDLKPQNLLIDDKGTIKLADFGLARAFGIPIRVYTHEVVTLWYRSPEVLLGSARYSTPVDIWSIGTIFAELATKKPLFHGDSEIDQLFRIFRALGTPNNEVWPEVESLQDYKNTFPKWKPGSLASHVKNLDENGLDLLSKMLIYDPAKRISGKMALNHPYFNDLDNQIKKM
T1 sequence (P20248 whole entry partner): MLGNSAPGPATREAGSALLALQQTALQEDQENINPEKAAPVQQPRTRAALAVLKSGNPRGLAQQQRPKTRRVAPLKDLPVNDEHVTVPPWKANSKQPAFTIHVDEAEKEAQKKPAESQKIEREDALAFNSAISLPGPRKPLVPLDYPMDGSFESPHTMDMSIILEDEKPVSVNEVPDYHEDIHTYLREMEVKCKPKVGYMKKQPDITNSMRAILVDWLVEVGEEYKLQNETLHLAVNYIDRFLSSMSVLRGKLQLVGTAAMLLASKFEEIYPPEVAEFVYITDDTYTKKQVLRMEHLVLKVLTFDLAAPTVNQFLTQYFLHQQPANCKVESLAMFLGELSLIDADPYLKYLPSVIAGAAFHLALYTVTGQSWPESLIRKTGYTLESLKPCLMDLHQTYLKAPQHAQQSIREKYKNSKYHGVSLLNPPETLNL
T3 sequence (P11802 whole entry): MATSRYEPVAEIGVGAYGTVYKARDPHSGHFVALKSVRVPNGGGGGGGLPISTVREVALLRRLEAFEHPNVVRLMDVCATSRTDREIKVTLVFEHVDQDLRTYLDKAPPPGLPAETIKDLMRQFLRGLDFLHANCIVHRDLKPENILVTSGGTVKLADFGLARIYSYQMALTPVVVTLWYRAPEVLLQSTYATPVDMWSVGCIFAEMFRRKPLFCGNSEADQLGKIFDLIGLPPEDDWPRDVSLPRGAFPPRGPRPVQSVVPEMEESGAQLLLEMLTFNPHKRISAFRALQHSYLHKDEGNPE
T3 sequence (P30281 whole entry partner): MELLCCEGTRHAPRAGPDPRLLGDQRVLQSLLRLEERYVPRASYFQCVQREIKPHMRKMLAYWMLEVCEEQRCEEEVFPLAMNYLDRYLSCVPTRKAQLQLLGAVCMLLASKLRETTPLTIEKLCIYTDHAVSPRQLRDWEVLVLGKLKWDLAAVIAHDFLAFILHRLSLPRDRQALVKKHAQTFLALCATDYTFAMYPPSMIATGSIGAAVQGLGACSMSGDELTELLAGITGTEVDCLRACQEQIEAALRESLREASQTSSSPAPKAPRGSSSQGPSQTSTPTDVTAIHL

SMILES | IC50 [1] [nM] | FS SKOV-3/OVISE [1] | FS p-H3/OVISE [1] | CDK2 OVISE IC50 fold change in potency versus Comparator D [1] [fold] | CDK2 OVISE IC50 fold change in potency versus Comparator E [1] [fold] | Ki [2] [nM] | FS CDK1/CDK2 increased over Comparator D, (+) sign ([2]; Table R) | FS CDK1/CDK2 ([2]; Table R) | FS CDK1/CDK2 ([2]; Table S) | IC50 (HCT116 cells) [nM] | IC50 (SKOV-3 (ATCC HTB-77); SK-OV-3, Table O) [nM] | FS SKOV-3/OVISE increased over Comparator D, (+) sign (SKOV-3 (ATCC HTB-77); Table R) | FS SKOV-3/OVISE (SKOV-3 (ATCC HTB-77); Table R) | FS SKOV-3/OVISE (SKOV-3 (ATCC HTB-77); Table S) | Ki [3, 5] [nM] | FS CDK1/CDK2 ([3]; Table O) | FS CDK4/CDK2 ([3]; Table O) | Ki [3, 6] [nM] | CDK2 Ki fold change in potency versus Comparator D ([3]; Table R) [fold] | Ki [3, 7] [nM] | further results
Cc1cc(Nc2cc([C@H]3CC[C@@H](OC(=O)NC(C)(C)C)C3)[nH]n2)nn(C)c1=O [Example 4D, (1R,3S)-3-(3-((1,5-dimethyl-6-oxo-1,6-dihydropyridazin-3-yl)amino)-1H-pyrazol-5-yl)cyclopentyl tert-butylcarbamate] | 26 | 58 | 0.35 | 146 | 6.5 | 3.7 | (+) | > 59 | >59 | 9.2 | 1500 | (+) | 58 | 58 | < 0.1 | >59 | >620 | < 0.1 | 27 | < 0.1 | CDK2 cell potency compared with Comparator E [1]: more potent CDK2 cell inhibitors compared to Comparator E; selectivity for CDK2 over CDK4 compared with Comparator E (SKOV-3 (ATCC HTB-77)): increase in selectivity for CDK2 over CDK4; FS SKOV-3/OVISE increased over Comparator E, (+) sign (SKOV-3 (ATCC HTB-77); Table S): (+); CDK2 Ki fold change in potency versus Comparator E ([3]; Table S): 5.2 fold; Ki ([3]; read-out: CDK2 activity / potency (enzymatic assay)): ≤ 1 nM; Ki [4]: 39 nM; FS CDK4/CDK2 increased over Comparator D, (+) sign ([4]; Table R): (+); FS CDK4/CDK2 ([4]; Table R): > 620; FS CDK4/CDK2 increased over Comparator E, (+) sign ([4]; Table S): (+); FS CDK4/CDK2 ([4]; Table S): > 620
CNC(=O)c1ccc(Nc2cc([C@H]3CC[C@@H](OC(=O)NC(C)(C)C)C3)[nH]n2)nc1 [Example 4E, (1R,3S)-3-(3-((5-(methylcarbamoyl)pyridin-2-yl)amino)-1H-pyrazol-5-yl)cyclopentyl tert-butylcarbamate] | 96 | 27 | 1.1 | 40 | 1.8 | 75 | (+) | 47 | 47 | 100 | 2600 | (+) | 27 | 27 | 1.6 | 47 | 53 | 1.6 | 1.7 | 1.6 | CDK2 cell potency compared with Comparator E [1]: more potent CDK2 cell inhibitors compared to Comparator E; IC50 (SKOV-3 (ATCC HTB-77); SK-OV-3, Table R): 2600 nM; IC50 (SKOV-3 (ATCC HTB-77); SK-OV-3, Table S): 2600 nM; selectivity for CDK2 over CDK4 compared with Comparator E (SKOV-3 (ATCC HTB-77)): increase in selectivity for CDK2 over CDK4; FS SKOV-3/OVISE increased over Comparator E, (+) sign (SKOV-3 (ATCC HTB-77); Table S): (+); CDK2 Ki fold change in potency versus Comparator E ([3]; Table S): 0.3 fold; Ki [4]: 84 nM; FS CDK4/CDK2 increased over Comparator D, (+) sign ([4]; Table R): (+); FS CDK4/CDK2 ([4]; Table R): 53; FS CDK4/CDK2 increased over Comparator E, (+) sign ([4]; Table S): (+); FS CDK4/CDK2 ([4]; Table S): 53
CNC(=O)c1ccnc(Nc2cc([C@H]3CC[C@@H](OC(=O)NC(C)(C)C)C3)[nH]n2)c1 [Example 4F, (1R,3S)-3-(3-((4-(methylcarbamoyl)pyridin-2-yl)amino)-1H-pyrazol-5-yl)cyclopentyl tert-butylcarbamate] | 190 | 8.9 | 0.35 | 20 | 0.9 | 52 | (+) | 21 | 21 | 66 | 1700 | (+) | 8.9 | 8.9 | 2.5 | 21 | 15 | 2.5 | 1.1 | 2.5 | IC50 (SKOV-3 (ATCC HTB-77); SK-OV-3, Table R): 1700 nM; IC50 (SKOV-3 (ATCC HTB-77); SK-OV-3, Table S): 1700 nM; CDK2 Ki fold change in potency versus Comparator E ([3]; Table S): 0.2 fold; Ki [4]: 37 nM; FS CDK4/CDK2 increased over Comparator D, (+) sign ([4]; Table R): (+); FS CDK4/CDK2 ([4]; Table R): 15; FS CDK4/CDK2 ([4]; Table S): 15
CC(C)(C)NC(=O)O[C@@H]1CC[C@H](c2cc(Nc3ccccn3)n[nH]2)C1 [Example 4G, (1R,3S)-3-(3-(pyridin-2-ylamino)-1H-pyrazol-5-yl)cyclopentyl tert-butylcarbamate] | 240 | 6.3 | 1.0 | 16 | 0.7 | 75 | (+) | 44 | 44 | 240 | 1500 | (+) | 6.3 | 6.3 | 1.7 | 44 | 16 | 1.7 | 1.6 | 1.7 | IC50 (SKOV-3 (ATCC HTB-77); SK-OV-3, Table R): 1500 nM; IC50 (SKOV-3 (ATCC HTB-77); SK-OV-3, Table S): 1500 nM; CDK2 Ki fold change in potency versus Comparator E ([3]; Table S): 0.3 fold; Ki [4]: 27 nM; FS CDK4/CDK2 increased over Comparator D, (+) sign ([4]; Table R): (+); FS CDK4/CDK2 ([4]; Table R): 16; FS CDK4/CDK2 ([4]; Table S): 16
CC(C)(C)NC(=O)O[C@@H]1CC[C@H](c2cc(Nc3ccncc3)n[nH]2)C1 [Example 4H, (1R,3S)-3-(3-(pyridin-4-ylamino)-1H-pyrazol-5-yl)cyclopentyl tert-butylcarbamate] | 38 | 25 | 1.4 | 100 | 4.4 | 180 | (+) | 90 | 90 | 54 | 950 | (+) | 25 | 25 | 2 | 90 | 55 | 2 | 1.4 | 2 | CDK2 cell potency compared with Comparator E [1]: more potent CDK2 cell inhibitors compared to Comparator E; FS CDK1/CDK2 increased over Comparator E, (+) sign ([2]; Table S): (+); selectivity for CDK2 over CDK4 compared with Comparator E (SKOV-3 (ATCC HTB-77)): increase in selectivity for CDK2 over CDK4; FS SKOV-3/OVISE increased over Comparator E, (+) sign (SKOV-3 (ATCC HTB-77); Table S): (+); CDK2 Ki fold change in potency versus Comparator E ([3]; Table S): 0.3 fold; Ki [4]: 110 nM; FS CDK4/CDK2 increased over Comparator D, (+) sign ([4]; Table R): (+); FS CDK4/CDK2 ([4]; Table R): 55; FS CDK4/CDK2 increased over Comparator E, (+) sign ([4]; Table S): (+); FS CDK4/CDK2 ([4]; Table S): 55

Source: patent US20240425478A1, “CYCLOPENTYLPYRAZOLE CDK2 INHIBITORS” (Genentech, Inc., priority 2021, published 2024)
